Active and inactive are the calls of the source. The calls are words filed in the database; no cut-off is given here.
Legend:
SW480 [1] = assay: Cell cycle arrest in human SW480 cells assessed as accumulation at Sub-G1 phase at 0.7 uM incubated for 24 hrs by RNaseA/propidium iodide staining based flow cytometry (reference value: 3.2 %); type: functional
HCT-116 [2] = assay: Downregulation of c-Myc protein expression in human HCT-116 cells at 0.3 uM incubated for 24 hrs by immunoblotting assay; type: functional, cell-based
SW480 [3] = assay: Induction of apoptosis in human SW480 cells assessed as downregulation of survivin expression at 1.4 uM measured at 12 to 48 hrs by immunoblotting assay; type: functional, cell-based; conditions: time 12-48 hrs, TDE = time-dependent effect
HCT-116 [4] = assay: Induction of apoptosis in human HCT-116 cells assessed as late apoptotic cells at 0.15 uM incubated for 48 hrs by Annexin V-FITC/PI staining based flow cytometry analysis (Rvb= 3.18%); type: functional
HCT-116 [5] = assay: Induction of apoptosis in human HCT-116 cells assessed as upregulation of cleaved caspase-8 expression at 0.3 uM measured at 12 to 48 hrs by immunoblotting assay; type: functional, cell-based; conditions: time 12-48 hrs, TDE = time-dependent effect
HCT-116 [6] = assay: Cell cycle arrest in human HCT-116 cells assessed as accumulation at G0/G1 phase at 0.3 uM incubated for 24 hrs by RNaseA/propidium iodide staining based flow cytometry (reference value: 48.44 %); type: functional
HCT-116 [7] = assay: Anti-migratory activity against human HCT-116 cells assessed as downregulation of Snail gene expression at 0.075 to 0.3 uM incubated for 24 hrs by RT-PCR assay; type: functional, cell-based; conditions: dose 0.075-0.3 µM
HCT-116 [8] = assay: Induction of apoptosis in human HCT-116 cells assessed as viable cells at 0.075 uM incubated for 48 hrs by Annexin V-FITC/PI staining based flow cytometry analysis (Rvb= 94.18%); type: functional; conditions: read-out: Activity
HCT-116 [9] = assay: Cell cycle arrest in human HCT-116 cells assessed as accumulation at G0/G1 phase at 0.15 uM incubated for 24 hrs by RNaseA/propidium iodide staining based flow cytometry (reference value: 48.44 %); type: functional
SW480 [10] = assay: Anti-migratory activity against human SW480 cells assessed as downregulation of Snail gene expression at 0.35 to 1.4 uM incubated for 24 hrs by RT-PCR assay; type: functional, cell-based; conditions: dose 0.35-1.4 µM
HCT-116 [11] = assay: Antimigratory activity against highly liver metastatic human HCT-116 cells assessed as downregulation of Snail gene expression at 0.075 to 0.3 uM incubated for 24 hrs by RT-PCR method; type: functional, cell-based; conditions: dose 0.075-0.3 µM
SW480 [12] = assay: Anti-migratory activity against human SW480 cells assessed as downregulation of Snail protein expression at 0.35 to 1.4 uM incubated for 24 hrs by immunoblotting assay; type: functional, cell-based; conditions: dose 0.35-1.4 µM
HCT-116 [13] = assay: Cell cycle arrest in human HCT-116 cells assessed as accumulation at G2/M phase at 0.15 uM incubated for 24 hrs by RNaseA/propidium iodide staining based flow cytometry (reference value: 28.41 %); type: functional
HCT-116 [14] = assay: Induction of apoptosis in human HCT-116 cells assessed as necrotic cells at 0.075 uM incubated for 48 hrs by Annexin V-FITC/PI staining based flow cytometry analysis (Rvb= 0.13%); type: functional
SW480 [15] = assay: Cell cycle arrest in human SW480 cells assessed as accumulation at S phase at 0.7 uM incubated for 24 hrs by RNaseA/propidium iodide staining based flow cytometry (reference value: 16.7 %); type: functional
SW480 [16] = assay: Induction of apoptosis in human SW480 cells assessed as necrotic cells at 0.7 uM incubated for 48 hrs by Annexin V-FITC/PI staining based flow cytometry analysis (Rvb= 0.07%); type: functional
SW480 [17] = assay: Induction of apoptosis in human SW480 cells assessed as late apoptotic cells at 1.4 uM incubated for 48 hrs by Annexin V-FITC/PI staining based flow cytometry analysis (Rvb= 5.26%); type: functional
SW480 [18] = assay: Cell cycle arrest in human SW480 cells assessed as accumulation at G2/M phase at 0.35 uM incubated for 24 hrs by RNaseA/propidium iodide staining based flow cytometry (reference value: 24.74 %); type: functional
HCT-116 [19] = assay: Cell cycle arrest in human HCT-116 cells assessed as accumulation at Sub-G1 phase at 0.3 uM incubated for 24 hrs by RNaseA/propidium iodide staining based flow cytometry (reference value: 3.66 %); type: functional
SW480 [20] = assay: Antiproliferative activity against human SW480 cells assessed as cell growth inhibition incubated for 72 hrs by SRB assay; type: functional, cell-based; conditions: SW480, 72 h
SW480 [21] = assay: Induction of apoptosis in human SW480 cells assessed as late apoptotic cells at 0.35 uM incubated for 48 hrs by Annexin V-FITC/PI staining based flow cytometry analysis (Rvb= 5.26%); type: functional
HCT-116 [22] = assay: Induction of apoptosis in human HCT-116 cells assessed as necrotic cells at 0.15 uM incubated for 48 hrs by Annexin V-FITC/PI staining based flow cytometry analysis (Rvb= 0.13%); type: functional
SW480 [23] = assay: Inhibition of colony formation in human SW480 cells at 0.35 to 1.4 uM incubated for 72 hrs by crystal violet staining based assay; type: functional, cell-based; conditions: dose 0.35-1.4 µM, DDE = dose-dependent effect
HCT-116 [24] = assay: Antimigratory activity against highly liver metastatic human HCT-116 cells assessed as upregulation of E-cadherin gene expression at 0.075 to 0.3 uM incubated for 24 hrs by RT-PCR method; type: functional, cell-based; conditions: dose 0.075-0.3 µM
HCT-116 [25] = assay: Induction of apoptosis in human HCT-116 cells assessed as viable cells at 0.15 uM incubated for 48 hrs by Annexin V-FITC/PI staining based flow cytometry analysis (Rvb= 94.18%); type: functional; conditions: read-out: Activity
HCT-116 [26] = assay: Antitumor activity against human HCT-116 cells xenografted Balb/c mouse assessed as increase in NDRG1 protein expression at 3 mg/kg,ip administrated for 18 days by 3 times per week by immunoblotting assay; type: functional, organism-based; conditions: time 18.0 day
HCT-116 [27] = assay: Upregulation of cyclin-D1 protein expression in human HCT-116 cells with NDRG1 knockdown at 0.3 uM incubated for 24 hrs by immunoblotting assay; type: functional, cell-based
HCT-116 [28] = assay: Cell cycle arrest in human HCT-116 cells assessed as accumulation at S phase at 0.15 uM incubated for 24 hrs by RNaseA/propidium iodide staining based flow cytometry (reference value: 19.94 %); type: functional
SW480 [29] = assay: Anti-migratory activity against human SW480 cells assessed as downregulation of N-cadherin protein expression at 0.35 to 1.4 uM incubated for 24 hrs by immunoblotting assay; type: functional, cell-based; conditions: dose 0.35-1.4 µM
SW480 [30] = assay: Induction of apoptosis in human SW480 cells assessed as viable cells at 0.35 uM incubated for 48 hrs by Annexin V-FITC/PI staining based flow cytometry analysis (Rvb= 92.6%); type: functional; conditions: read-out: Activity
SW480 [31] = assay: Induction of apoptosis in human SW480 cells assessed as necrotic cells at 0.35 uM incubated for 48 hrs by Annexin V-FITC/PI staining based flow cytometry analysis (Rvb= 0.07%); type: functional
HCT-116 [32] = assay: Induction of apoptosis in human HCT-116 cells assessed as downregulation of survivin expression at 0.3 uM measured at 12 to 48 hrs by immunoblotting assay; type: functional, cell-based; conditions: time 12-48 hrs, TDE = time-dependent effect
SW480 [33] = assay: Anti-migratory activity against human SW480 cells assessed as upregulation of E-cadherin protein expression at 0.35 to 1.4 uM incubated for 24 hrs by immunoblotting assay; type: functional, cell-based; conditions: dose 0.35-1.4 µM
HCT-116 [34] = assay: Antitumor activity against human HCT-116 cells assessed as decrease in c-Myc expression at 0.075 to 0.3 uM incubated for 24 hrs by immunoblotting assay; type: functional, cell-based; conditions: dose 0.075-0.3 µM

C[C@@H]1\C=C/C=C/C=C\C=C\C=C\C(=O)C2=C(O)C(=O)C[C@@]2(C)/C=C/C=C\C=C/C(=O)NC1
Activity (SW480 [1]): 4.68% | Activity (HCT-116 [2]): Active | Activity (SW480 [3]): Tde | Activity (HCT-116 [4]): 9.22% | Activity (HCT-116 [5]): Tde | Activity (HCT-116 [6]): 62.85% | Activity (HCT-116 [7]): Active | viability at 0.075 µM (HCT-116 [8]): 84.8% | Activity (HCT-116 [9]): 55.55% | Activity (SW480 [10]): Active | Activity (HCT-116 [11]): Active | Activity (SW480 [12]): Active | Activity (HCT-116 [13]): 21.81% | Activity (HCT-116 [14]): 0.16% | Activity (SW480 [15]): 15.28% | Activity (SW480 [16]): 0.08% | Activity (SW480 [17]): 44.51% | Activity (SW480 [18]): 24.45% | Activity (HCT-116 [19]): 5.19% | IC50 (SW480 [20]): 650 nM | Activity (SW480 [21]): 4.36% | Activity (HCT-116 [22]): 0.18% | inhibition (SW480 [23]): Dde | Activity (HCT-116 [24]): Active | viability at 0.15 µM (HCT-116 [25]): 74.9% | Activity (HCT-116 [26]): Active | Activity (HCT-116 [27]): Active | Activity (HCT-116 [28]): 11.41% | Activity (SW480 [29]): Active | viability at 0.35 µM (SW480 [30]): 93% | Activity (SW480 [31]): 0.06% | Activity (HCT-116 [32]): Tde | Activity (SW480 [33]): Active | Activity (HCT-116 [34]): Active

Reference: ChEMBL document CHEMBL5215006, “Antitumor Activity of Piceamycin by Upregulation of N-Myc Downstream-Regulated Gene 1 in Human Colorectal Cancer Cells” (J Nat Prod, 2022)
